Source: US7008905B2, “Method of combating undesired plant growth on cereals” (BASF Aktiengesellschaft, priority 2000, dated 2006)

Tests used:
Assay type in all cases: in vivo
[1] = system: barley; experiment: Pre-emergence test, tolerance in barley
Description: The pre-emergence tests involve spraying a liquid formulation of the compound onto the soil in which the seeds of the plant species mentioned above has recently been sown.
The soil used in the tests is a prepared horticultural loam. The formulations used in the tests are prepared from solutions of the test compounds in acetone containing 0.4% by weight of an alkylphenol/ethylene oxide condensate available under the trade mark TRITON X-155.
These acetone solutions are diluted with water and the resulting formulations applied at dosage levels corresponding to 15 g, 30 g, 60 g, 120 g or 240 g of active material per hectare in a volume equivalent to 900 liters per hectare. In these tests untreated sown soil is used as control. The herbicidal effects of the test compounds are assessed visually three weeks after spraying the soil and are recorded an a 0 to 100 scale. A rating 0 indicates growth as untreated control, a rating 100 indicates death. An increase of 10 unit an the linear scale approximates to a 10% increase in the level of effect. The results of the assessment are set out in Tables 1 to 4.

[2] = system: Polygonum convolvulus; experiment: Post-emergence test, weed control; settings: 2–4 weeks after treatment, rating 0-100 (100=death), Table 5
How it was run: (§1)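 Acetone solutions diluted in water were sprayed post-emergence at about 0.030–0.240 kg/ha. Plants were kept on greenhouse benches and rated 2–4 weeks after treatment on a 0 (as untreated control) to 100 (death) scale.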

[3] = system: Lamium purpureum; experiment: Post-emergence test, weed control; settings: 2–4 weeks after treatment, rating 0-100 (100=death), Table 5
How it was run: as §1

[4] = system: Galium aparine; experiment: Post-emergence test, weed control; settings: 2–4 weeks after treatment, rating 0-100 (100=death), Table 5
How it was run: as §1

[5] = system: Matricaria inodora; experiment: Post-emergence test, weed control; settings: 2–4 weeks after treatment, rating 0-100 (100=death), Table 5
How it was run: as §1

[6] = system: VIOAR; experiment: Post-emergence test, weed control; settings: 2–4 weeks after treatment, rating 0-100 (100=death), Table 5
How it was run: as §1

[7] = system: Stellaria media; experiment: Post-emergence test, weed control; settings: 2–4 weeks after treatment, rating 0-100 (100=death), Table 5
How it was run: as §1

[8] = system: wheat; experiment: Pre-emergence test, tolerance in wheat
How it was run: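 Test compounds in acetone with 0.4% TRITON X-155, diluted with water, were sprayed onto freshly sown horticultural loam at 15, 30, 60, 120 or 240 g a.i./ha in 900 L/ha. Visual assessment three weeks after spraying, on a 0–100 scale (0 = as untreated control, 100 = death).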

[9] = system: grasses and broadleaf weeds; experiment: Post-emergence test, overall weed control
Description: These acetone solutions are diluted with water and the resulting formulations applied at dosage levels equivalent of about 0.030 to 0.240 kg per hectare of test compound per pot. After spraying the plants are placed an greenhouse benches and are cared for in the usual manner, commensurate with conventional greenhouse practices. From 2 to 4 weeks after treatment, the seedling plants are examined and rated according to the rating system provided above. A rating 0 indicates growth as untreated control, a rating 100 indicates death.

Cc1cnc(-c2ccc(C(F)(F)F)cc2)nc1Oc1cccc(C(F)(F)F)c1 [REF-1]
dose at which sufficiently selective in barley [1]: did not exhibit acceptable tolerance in barley at any dose
POLCO weed control rating ([2]; 0.030 kg/ha): 15
POLCO weed control rating ([2]; 0.120 kg/ha): 25
POLCO weed control rating ([2]; 0.240 kg/ha): 70
LAMPU weed control rating ([3]; 0.030 kg/ha): 93
LAMPU weed control rating ([3]; 0.060 kg/ha): 93
LAMPU weed control rating ([3]; 0.120 kg/ha): 93
LAMPU weed control rating ([3]; 0.240 kg/ha): 93
GALAP weed control rating ([4]; 0.030 kg/ha): 80
GALAP weed control rating ([4]; 0.060 kg/ha): 85
GALAP weed control rating ([4]; 0.120 kg/ha): 92
GALAP weed control rating ([4]; 0.240 kg/ha): 92
MATIN weed control rating ([5]; 0.030 kg/ha): 70
MATIN weed control rating ([5]; 0.060 kg/ha): 75
MATIN weed control rating ([5]; 0.120 kg/ha): 75
MATIN weed control rating ([5]; 0.240 kg/ha): 85
VIOAR weed control rating ([6]; 0.030 kg/ha): 92
VIOAR weed control rating ([6]; 0.060 kg/ha): 93
VIOAR weed control rating ([6]; 0.120 kg/ha): 93
VIOAR weed control rating ([6]; 0.240 kg/ha): 95
STEME weed control rating ([7]; 0.030 kg/ha): 80
STEME weed control rating ([7]; 0.060 kg/ha): 90
STEME weed control rating ([7]; 0.120 kg/ha): 92
STEME weed control rating ([7]; 0.240 kg/ha): 92

CCc1cc(Oc2cccc(C(F)(F)F)c2)nc(-c2ccc(C(F)(F)F)cc2)n1 [REF-3]
POLCO weed control rating ([2]; 0.060 kg/ha): 35
POLCO weed control rating ([2]; 0.120 kg/ha): 55
POLCO weed control rating ([2]; 0.240 kg/ha): 80
LAMPU weed control rating ([3]; 0.030 kg/ha): 93
LAMPU weed control rating ([3]; 0.060 kg/ha): 93
LAMPU weed control rating ([3]; 0.120 kg/ha): 93
LAMPU weed control rating ([3]; 0.240 kg/ha): 93
GALAP weed control rating ([4]; 0.030 kg/ha): 90
GALAP weed control rating ([4]; 0.060 kg/ha): 90
GALAP weed control rating ([4]; 0.120 kg/ha): 93
GALAP weed control rating ([4]; 0.240 kg/ha): 93
MATIN weed control rating ([5]; 0.030 kg/ha): 65
MATIN weed control rating ([5]; 0.060 kg/ha): 80
MATIN weed control rating ([5]; 0.120 kg/ha): 85
MATIN weed control rating ([5]; 0.240 kg/ha): 85
VIOAR weed control rating ([6]; 0.030 kg/ha): 90
VIOAR weed control rating ([6]; 0.060 kg/ha): 90
VIOAR weed control rating ([6]; 0.120 kg/ha): 90
VIOAR weed control rating ([6]; 0.240 kg/ha): 93
STEME weed control rating ([7]; 0.030 kg/ha): 65
STEME weed control rating ([7]; 0.060 kg/ha): 85
STEME weed control rating ([7]; 0.120 kg/ha): 85
STEME weed control rating ([7]; 0.240 kg/ha): 92
maximum tolerated dose in wheat / dose at which sufficiently selective in wheat ([8]; in vivo): 60 g/ha
weed control at wheat selective doses [9]: incomplete

Cc1nc(-c2ccc(C(F)(F)F)cc2)nc(Oc2cccc(C(F)(F)F)c2)c1C [REF-2]
POLCO weed control rating ([2]; 0.060 kg/ha): 0
POLCO weed control rating ([2]; 0.120 kg/ha): 25
POLCO weed control rating ([2]; 0.240 kg/ha): 40
LAMPU weed control rating ([3]; 0.030 kg/ha): 85
LAMPU weed control rating ([3]; 0.060 kg/ha): 90
LAMPU weed control rating ([3]; 0.120 kg/ha): 92
LAMPU weed control rating ([3]; 0.240 kg/ha): 93
GALAP weed control rating ([4]; 0.030 kg/ha): 50
GALAP weed control rating ([4]; 0.060 kg/ha): 80
GALAP weed control rating ([4]; 0.120 kg/ha): 85
GALAP weed control rating ([4]; 0.240 kg/ha): 85
MATIN weed control rating ([5]; 0.030 kg/ha): 35
MATIN weed control rating ([5]; 0.060 kg/ha): 45
MATIN weed control rating ([5]; 0.120 kg/ha): 55
MATIN weed control rating ([5]; 0.240 kg/ha): 60
VIOAR weed control rating ([6]; 0.030 kg/ha): 75
VIOAR weed control rating ([6]; 0.060 kg/ha): 90
VIOAR weed control rating ([6]; 0.120 kg/ha): 90
VIOAR weed control rating ([6]; 0.240 kg/ha): 95
STEME weed control rating ([7]; 0.030 kg/ha): 45
STEME weed control rating ([7]; 0.060 kg/ha): 50
STEME weed control rating ([7]; 0.120 kg/ha): 55
STEME weed control rating ([7]; 0.240 kg/ha): 80

FC(F)(F)c1ccc(-c2nccc(Oc3cccc(C(F)(F)F)c3)n2)cc1 [TTP, 4-(3-trifluoromethylphenoxy)-2-(4-trifluoromethyl-phenyl)-pyrimidine]
dose at which sufficiently selective in barley [1]: 15 g/ha
POLCO weed control rating ([2]; 0.030 kg/ha): 10
POLCO weed control rating ([2]; 0.060 kg/ha): 60
POLCO weed control rating ([2]; 0.120 kg/ha): 35
POLCO weed control rating ([2]; 0.240 kg/ha): 90
LAMPU weed control rating ([3]; 0.030 kg/ha): 85
LAMPU weed control rating ([3]; 0.060 kg/ha): 75
LAMPU weed control rating ([3]; 0.120 kg/ha): 92
LAMPU weed control rating ([3]; 0.240 kg/ha): 93
GALAP weed control rating ([4]; 0.030 kg/ha): 60
GALAP weed control rating ([4]; 0.060 kg/ha): 97
GALAP weed control rating ([4]; 0.120 kg/ha): 80
GALAP weed control rating ([4]; 0.240 kg/ha): 93
MATIN weed control rating ([5]; 0.030 kg/ha): 50
MATIN weed control rating ([5]; 0.060 kg/ha): 90
MATIN weed control rating ([5]; 0.120 kg/ha): 75
MATIN weed control rating ([5]; 0.240 kg/ha): 90
VIOAR weed control rating ([6]; 0.030 kg/ha): 90
VIOAR weed control rating ([6]; 0.060 kg/ha): 92
VIOAR weed control rating ([6]; 0.120 kg/ha): 92
VIOAR weed control rating ([6]; 0.240 kg/ha): 95
STEME weed control rating ([7]; 0.030 kg/ha): 50
STEME weed control rating ([7]; 0.060 kg/ha): 60
STEME weed control rating ([7]; 0.120 kg/ha): 70
STEME weed control rating ([7]; 0.240 kg/ha): 90
maximum tolerated dose in wheat / dose at which sufficiently selective in wheat ([8]; pre-emergence): 240 g/ha
